The compound `Cc1cc(SCC#Cc2ccc(C(F)(F)F)cc2)ccc1OCC(=O)O` came in with a melting point of 130 to 131 °C.

Compound `Cc1cccc(-c2[nH]c(C(C)C)nc2-c2ccc(F)c(-c3ccc(S(C)(=O)=O)nc3)c2)n1` displayed a melting point of 102 to 105 °C.

As for `COc1ccccc1Oc1c(Cl)nc(-c2cccnn2)nc1NS(=O)(=O)CCc1cccc2ccccc12`, the melting point amounted to 192 °C.

Consider `O=S(=O)(Nc1ncnc(Cl)c1Cc1ccc2ccccc2c1)c1ccc(Cl)cc1`, for which the melting point is 197 to 199 °C.

As to `COCOc1c(NC(=S)NCc2cccnc2)cc(OC)cc1C(C)(C)C`, the melting point was 137 to 138 °C.

With `CC(C)(C)c1ccc(C(=O)Nc2cn3cc(-c4ccsc4)ccc3n2)cc1`, the melting point was 261 to 263 °C.

In the case of `Fc1ccccc1CN[C@H]1CCCN[C@H]1c1ccccc1` (relative stereo), the melting point was above 260 °C.

In the case of `O=C(CBr)c1coc2ccccc2c1=O`, the melting point was 140 to 145 °C.

As to `Cc1cc(CCCCCOc2c(C)cc(-c3noc(C(F)(F)F)n3)cc2C)on1`, the melting point was in the range of 41 to 42 °C.

As to `C=Cc1cc(OS(=O)(=O)c2ccc(C)cc2)c(OC)cc1C#N`, the melting point lay within 149 to 150 °C.

`Cc1c(C(=O)O)nc2c(=O)[nH]c3cc(C(F)(F)F)ccc3n12` yielded a melting point above 250 °C.

The compound `CCCCCC(CNC(=O)Nc1cc(C(N)=O)ccc1C(C)(C)C)c1ccc(OC)cc1OC` (configuration not stated) had a melting point of 223 to 224 °C.

`Cc1ccc(C(=O)N(CCCNC(=O)OC(C)(C)C)C(c2nc3snc(C)c3c(=O)n2Cc2ccccc2)C(C)C)cc1` (configuration not stated) had a melting point of 70 to 71 °C.

On to `CNC(=O)c1ccc(NC(=O)OC(C)(C)C)cc1`, for which the melting point turned out to be 185 °C.

`O=C(O)c1c[nH]c(=S)n1C1CCc2c(F)cc(F)cc2C1` (configuration not stated) registered a melting point of 250 to 252 °C.

Regarding `CCCCCN(CCCCC)CCC(O)(P(=O)(O)O)P(=O)(O)O`, the melting point fell in the range of 47 to 49 °C.

For `Cn1nc(-c2ccccc2C(F)(F)F)nc1-c1ccccc1Cl`, the melting point was 90 to 92 °C.

`CCC(CC)c1ccc(Cl)c2nc3n(c12)CCCCN3c1ccc(C(=O)NC)cc1C` yielded a melting point of 127 to 128 °C.

On to `COc1cc(C(=O)O)ccc1Cc1cn(C)c2ccc(CC(C)C(=O)NCC3CCCC3)cc12` (configuration not stated), for which the melting point was in the range of 103 to 109 °C.

`COc1c(N)cc(C)cc1N` yielded a melting point of 67 to 69 °C.

The compound `O=C(O)CCC(=O)c1ccc(N2CCC3(CC2)OCCO3)cc1` returned a melting point of 130 to 131 °C.

`N#Cc1ccccc1CN1CCC(=O)C(C(c2ccc(F)cc2)c2ccc(F)cc2)C1` (configuration not stated) displayed a melting point of 83 to 84 °C.

Take `COCCN1CCc2cc(Nc3ncc(Cl)c(NC4(C(=O)NCC#N)CC4)n3)c(OC)cc2CC1`: the melting point was in the range of 187 to 189 °C.

`N#Cc1ccc2ccc(CBr)cc2c1` had a melting point of 110 to 116 °C.

For `CCCc1ccc(-n2ncc(C#N)c2N(C(C)=O)C(C)=O)c(Cl)c1`, the melting point was in the range of 110 to 112 °C.

In turn, `CC(C)c1nn(-c2ccc(Cl)cn2)cc1CCCO` showed a melting point of 93 to 95 °C.

For `Nc1n[nH]cc1C(=O)c1ccccc1`, the melting point lay in the range of 177 to 179 °C.

`COc1ccc(C2=NN(CCCCCCN)C(=O)[C@H]3CC=CC[C@@H]23)cc1OC` (relative stereo) came in with a melting point of 141 to 143 °C.

`COc1cc2c(c(Cl)c1Cl)SC(C1CCCC1)C2O` (configuration not stated) had a melting point of 129 to 132 °C.

Turning to `CCN1CCN(c2ccnc3c(NC(=O)c4c(Cl)cccc4Cl)ccc(C)c23)C1=O`, the melting point was 235 to 236 °C.

`Cc1cccc(Cl)c1NC(=O)CN1CCN(CCCC(c2ccc(F)cc2)c2ccc(F)cc2)C(CO)C1` (configuration not stated): the melting point is 150 °C.

`O=C(O)c1cnc2ncnn2c1S` showed a melting point of 247 to 249 °C.

`Fc1ccc2nc(Cl)c(Cl)nc2c1` had a melting point of 148 to 152 °C.

For `Cc1noc(C)c1S(=O)(=O)Nc1ccc(Cl)cc1`, the melting point amounted to 144 °C.

`CC(=NO)C(=O)c1ccc(NS(C)(=O)=O)c(Sc2ccc(F)cc2F)c1` came in with a melting point of 140 to 143 °C.

`COCSCCNC(=C[N+](=O)[O-])SC` showed a melting point of 54 to 58 °C.

`COc1ccc(-c2c(Cl)nc(Cl)nc2-c2ccccc2)cc1` yielded a melting point of 132 to 134 °C.

The compound `CC(C)(C)c1nc(C[C@@H]2CC[C@](C)(NCC(=O)N3C[C@@H](F)C[C@H]3C#N)C2(C)C)no1` gave a melting point of 152 to 154 °C.

For `Cc1c(NC(=O)CC(C)(C)C)c(C)c2c(c1-c1nccs1)OCC2c1ccc(C(C)C)cc1` (configuration not stated), the melting point lay in the range of 164 to 166 °C.

In turn, `NNc1ccc(C(=O)O)cn1` registered a melting point of 292 to 293 °C.

`NC1C(=O)N(CC2C3CC4CC(C3)CC2C4)c2ccccc2N(c2ccccc2)C1=O` (configuration not stated) showed a melting point of 209 to 210 °C.

For the compound `CCOC(=O)N1CCC(N(Cc2ccccc2)C(=S)Nc2ccccc2[N+](=O)[O-])CC1`, the melting point was 140 °C.

`CCn1c(=O)c2c(nc(/C=C/c3cccc(OC)c3OC(C)=O)n2C)n(CC)c1=O` displayed a melting point of 202 to 203 °C.

With `Nc1ccccc1Oc1ccccc1Cl`, the melting point lay in the range of 44 to 45 °C.

`COc1ccc(F)c(C(=O)O)c1` had a melting point of 144 to 146 °C.

For the compound `CCCC(=O)Oc1ccc(C)cc1[C@H](CCN(C(C)C)C(C)C)c1ccccc1`, the melting point lay in the range of 116 to 119 °C.

The compound `O=C(NO)C1(S(=O)(=O)c2ccc(Oc3ccc(Cl)cc3)cc2)CCN(Cc2ccccc2)CC1` registered a melting point of 90.4 °C.

`CCOC(=O)C1=C(C)NC(C)=C(C(=O)OC(C)C)C1c1cccc([N+](=O)[O-])c1` (configuration not stated) registered a melting point of 148 °C.

The compound `COc1nc2ccccc2nc1NC(=O)N1CCN(c2ccccc2)CC1` had a melting point of 147 to 149 °C.

For the compound `Cc1cccc2c1nc(COc1ccc(Cl)cc1)n2CCC(C)CC1NCCc2ccccc21` (racemic), the melting point lay within 114 to 116 °C.

Compound `COc1ccc(NC(=O)C(=O)N2CCC(Cc3ccccc3)CC2)cc1` registered a melting point of 144 to 146 °C.

Compound `Cc1ccc(-c2nc(O)cc(-c3ccccc3)n2)cc1` registered a melting point of 282 to 283 °C.

In turn, `Cc1cccc(-c2nnc(Nc3ccc(Br)c(Cl)c3)s2)c1` came in with a melting point of 230 to 231 °C.

In the case of `COc1ccc2oc(C(=O)c3cccnc3N3CCOCC3)cc2c1`, the melting point fell in the range of 85 to 88 °C.

`Cc1ccc(C(=O)N(c2ccccc2)c2ccc(OCCN(C)C)cc2)cc1`: the melting point lay in the range of 74.5 to 77.5 °C.

Consider `CN1C(=O)C(CC(NC(=O)c2ccc(Cl)cc2)C(=O)O)c2ccccc21` (configuration not stated), for which the melting point is 115 to 120 °C.

Regarding `Oc1ccc2c(c1)CCCC(c1ccccc1)=C2c1ccc(OCCCCCSCCCC(F)(F)C(F)(F)F)cc1`, the melting point lay in the range of 167 to 168 °C.

With `CCCCOc1ccc(-n2cc(C(=O)OCC)cn2)cc1C#N`, the melting point was determined as 132 °C.

`Cn1nc(CO)cc1OCCCN1CCN(c2cccc3sccc23)CC1` displayed a melting point of 124 to 126 °C.

As for `O=C(O)CCCN1CCN(C(=O)c2cc(C(F)(F)F)cc(C(F)(F)F)c2)[C@H](Cc2c[nH]c3ccccc23)C1`, the melting point lay in the range of 112 to 120 °C.

Turning to `CCC(=O)NS(=O)(=O)c1ccc(C(=O)C=Cc2cc(-c3cc4ccccc4[nH]3)c(OC)cc2OC)cc1`, the melting point was in the range of 223 to 225 °C.

On to `Cc1c(NC(=O)c2ccc(NC(=O)c3ccccc3)cc2)ccc2cc(CN3CCCC3)cnc12`, for which the melting point worked out at 242 °C.

The melting point is the temperature of the solid-liquid transition.

The record behind these values is a melting point compilation (Tetko et al.; mined from patent text by program, amines drawn as free bases though some values may be those of a salt).
